Patent US20250381274A1 (priority 2022, published 2025)
Entries after “also recorded” stand apart in the source; their conditions may differ.

How the values were obtained:
cornea [1] = test: Corneal topography (EyeSys), effective refractive power of ex vivo eyes crosslinked under coverslip loading; set-up: species or system rabbit; conditions: for immediate diopter drop (words) / sustained diopter drop (words): 20% ribose 1 hr + UVA 365 nm lamp up to 3 hrs; for immediate diopter drop (words): coverslip (Hypothesis 2B / Group3); for sustained diopter drop (words): coverslip, final time point 8-10 hours; for immediate diopter drop (decrease in effective refractive power): immediately after irradiation
From the text: • 5 additional rabbits (Paired treated and control for OS/OD) • Sample preparation for ex vivo EyeSys topography: • connected to IV system (˜15 mm H2O) • Epithelium removed • CxL during mechanical deformation introduced by the coverslip • Point1: 1 hr after IV stabilization • Point2: after applying 20% (1.7M) Ribose, then 20% Dextran • Point3: after flattening/treatment (˜2 hrs) • (flattened 8-10 mm) • Point4: ˜1 hr after point3 • Point5: last point (might need trypan blue on top) • Laser Treatments: • Fidelity II, 1069 nm, 39fs, 450 mW • Focusing: no (deliberate) spark around touching the tissue • ZEISS 40X, NA=0.1463 • Z: increments 20 μm, 5 layers (several intervals) • 1 stlayer 15 μm below surface of focus sparking • XY: 10 μm zigzag grid, 3 mm radius circle • Motor speed 2.6 mm/s, full circle treatments: ˜25*5 mins • Representative OCT and visual changes are shown in appended FIGS. 1-25.
• 3 additional rabbits (Paired treated and control for OS/OD) • connected to IV system, stabilize for ˜1 hr • Trypan Blue inside the anterior chamber beneath cornea • CxL during mechanical deformation introduced by the coverslip • (˜40%-60% flattened by coverslip from the total diameter) • Treatment Protocol-1 hr submerged in 20% w/v Ribose in 20% Dextran • up to 3 hrs of UVA lamp (visible flattening as an indicator for duration)
Corneal Topography: For Group3 eyes, using an EyeSys Vista handheld topographer, the effective refractive power (Eff.Rp) was collected at multiple time points in a 10-hour period after eye harvest. The immediate diopter drop was defined as the difference between the initial baseline Eff.Rp and the Eff.Rp immediately after CXL. The sustained diopter drop was defined as the difference between the initial baseline Eff.Rp and the final Eff.Rp. Statistical Analysis: One-tailed paired t-tests were used for statistical analysis of Eff.Rp (Group3); two-tailed paired t-tests were used for biomechanical comparison (Group1 and 2). A p-value smaller than 0.05 was considered statistically significant.
Corneal Topography and OCT: The EyeSys topography effective refractive power (Eff.Rp) and OCT images were collected at multiple time points in a 10-hour period after eye harvest. Diopter drop after CxL was calculated and compared relative to the baseline Eff.Rp.
(§1) In Group2 (n=15 rabbits), to assess corneal flattening, 24 intact eyeballs (12 rabbits) were enucleated and placed into a custom-build holder such that one eye was subject to ROS-Glycation-CXL, and the other served as a paired control. After 1 hr incubation in 20% ribose PBS, all apical eyeballs were pressed with a coverslip until the contact between the cornea and the coverslip reached approximately 3 mm in diameter until the treatment finished. Group 2A's (n=6 pairs) treated eyes were exposed to 1.5 hours of UVA lamp irradiation, whereas Group 2 B's (n=6 pairs) treated eyes were exposed to 3 hours of UVA lamp irradiation. Intraocular pressure was kept at 18-20 mm H2O through an IV system with needles connecting at the posterior side of the eyeball. In order to investigate the mechanical difference between the 1.5 hrs and 3 hrs irradiation groups, Group 2C's (n=3 pairs) corneas went through similar preparations as Group 1 corneas did such that the two treatments with different irradiation times were applied to the pair of eyes from the same animal.
Effective refractive power (Eff. RP) was measured using a handheld topographer (EyeSys Vista, Teas, USA) for Group 2A and 2B eyes. The first point measured at 0.5-1 hour represents the baseline initial refractive power after stabilization at the controlled intraocular pressure before any alterations. The second point measured at 2 hours represents the refractive power after the ribose solution application. The third point at 3.5 hours for Group 2A or 5 hours for Group 2B represents refractive power after ROS-Glycation-CXL or loading for control eyes. […]

cornea [2] = test: Optical coherence tomography, corneal apical thickness; set-up: species or system rabbit; conditions: for sustained thickness change, treated vs control / thickness increase compared to the baseline: final time point; for thickness increase compared to the baseline: all eyes (treated and control)
Description: as §1, with “animal. The corneas' cross-section and apical thickness were measured using an optical coherence tomographer (OQ LabScope Lumedica, North Carolina, USA) at the same time points described above. The thickness of the corneas was first segmented in ImageJ and calculated using a constant pixel-to-length conversion factor.” for “animal.”

[3] = 20% ribose + 1069 nm femtosecond laser 450 mW, coverslip deformation (Hypothesis 2A)

Structure (SMILES): O=C[C@H](O)[C@H](O)[C@H](O)CO [ribose]
- immediate diopter drop (words) (cornea [1]): significant Eff.RP diopter drop
- immediate diopter drop (words) (cornea [1]; listed as Ribose): diopter drop immediately after treatment
- sustained diopter drop (words) (cornea [1]): statistically significant sustained Eff.RP diopter drop; also recorded: stably sustained
- sustained diopter drop (words) (cornea [1]; listed as Ribose): persistent at the 8-10 hours time point
- immediate diopter change (cornea [1]; [3]): diopter drop immediately after treatment
- persistence of diopter change (cornea [1]; [3]): not persistent and gradually recovered to the baseline
- immediate diopter drop (decrease in effective refractive power) (cornea [1]; Group 2A: 20% ribose 1 hr, 1.5 hr 365 nm UVA lamp under coverslip flattening): 5 diopters
- sustained diopter drop (decrease in effective refractive power) (cornea [1]; Group 2A: 1.5 hr UVA treatment, 10 hr time point): 2.5 diopters
- immediate diopter drop (decrease in effective refractive power) (cornea [1]; Group 2B: 20% ribose 1 hr, 3 hr 365 nm UVA lamp under coverslip flattening): 10 diopters
- refractive power drop, crosslinked vs control pairs, immediate and sustained (cornea [1]; Groups 2A and 2B: ribose + 1.5 hr or 3 hr UVA lamp with coverslip loading): sustained drop of refractive power; also recorded: Significant immediate and sustained refractive power drop differences
- sustained thickness change, treated vs control (cornea [2]; Group 2A, 1.5 hr treatment): no significant difference; also recorded: no significant immediate and sustained corneal apical thickness differences
- immediate thickness change, treated vs loading-only control (cornea [2]; Group 2A, 1.5 hr treatment, immediately after treatment): no significant thickness change difference; also recorded: no significant immediate and sustained corneal apical thickness differences
- thickness increase compared to the baseline (cornea [2]; Group 2A): above 100 μm
- sustained thickness change, treated vs control (cornea [2]; Group 2B, 3 hr treatment): no significant difference; also recorded: no significant immediate and sustained corneal apical thickness differences
- thickness increase compared to the baseline (cornea [2]; Group 2B): above 200 μm
- immediate apical thickness increase compared to loading-only control (cornea [2]; Group 2B: coverslip flattening + 3 hr ROS-Glycation CxL, immediately after treatment): 400 nm
